Reference: article PMC4178217, “Quinoline 3-sulfonamides inhibit lactate dehydrogenase A and reverse aerobic glycolysis in cancer cells” (Cancer & Metabolism, 2013)
Where two headings read alike, the source gives them in different places.

Legend:
[1] = target: Cannabinoid receptor type 2 (Homo sapiens, UniProt P34972); assay: Cannabinoid receptor type 2 AG; settings: agonist; read-out: pEC50 Cannabinoid receptor type 2 AG (converted)
Excerpt: (§1) ANT = antagonist (pIC50), AG = agonist (pEC50). pIC50 and pEC50 are the negative logarithms10 of IC50 and EC50, respectively. Click here for file

[2] = target: Monoamine Oxidase B (Homo sapiens, UniProt P27338); assay: Monoamine Oxidase B ANT; format: biochemical; settings: antagonist; read-out: pIC50 Monoamine Oxidase B ANT (converted)
Excerpt: as §1

[3] = target: Aurora B Kinase (Homo sapiens, UniProt Q96GD4); assay: Aurora B Kinase ANT; format: biochemical; settings: antagonist; read-out: pIC50 Aurora B Kinase ANT (converted)
Excerpt: as §1

[4] = target: Opioid Receptor k (Homo sapiens, UniProt P41145); assay: Opioid Receptor k ANT; settings: antagonist; read-out: pIC50 Opioid Receptor k ANT (converted)
Excerpt: as §1

[5] = target: Sodium Channel NaV 1.5 (Homo sapiens, UniProt Q14524); assay: Sodium Channel NaV 1.5 ANT; settings: antagonist; read-out: pIC50 Sodium Channel NaV 1.5 ANT (converted)
Excerpt: as §1

[6] = target: Pregnane X receptor (Homo sapiens, UniProt O75469); assay: Pregnane X receptor AG; settings: agonist; read-out: pEC50 Pregnane X receptor AG (converted)
Excerpt: as §1

[7] = target: Lymphocyte-specific Tyrosine Kinase (Homo sapiens, UniProt P06239); assay: Lymphocyte-specific Tyrosine Kinase ANT; format: biochemical; settings: antagonist; read-out: pIC50 Lymphocyte-specific Tyrosine Kinase ANT (converted)
Excerpt: as §1

[8] = target: Dopamin Receptor D1 (Homo sapiens, UniProt P21728); assay: Dopamin Receptor D1 ANT; settings: antagonist; read-out: pIC50 Dopamin Receptor D1 ANT (converted)
Excerpt: as §1

[9] = target: Potassium Channel KCNQ1 (Homo sapiens, UniProt P51787); assay: Potassium Channel KCNQ1 ANT; settings: antagonist; read-out: pIC50 Potassium Channel KCNQ1 ANT (converted)
Excerpt: as §1

[10] = target: T1, Serotonin Receptor 5HT3 (Homo sapiens, UniProt P46098); assay: Serotonin Receptor 5HT3 AG; settings: agonist; read-out: pEC50 Serotonin Receptor 5HT3 AG (converted)
T1 sequence (P46098 24-478): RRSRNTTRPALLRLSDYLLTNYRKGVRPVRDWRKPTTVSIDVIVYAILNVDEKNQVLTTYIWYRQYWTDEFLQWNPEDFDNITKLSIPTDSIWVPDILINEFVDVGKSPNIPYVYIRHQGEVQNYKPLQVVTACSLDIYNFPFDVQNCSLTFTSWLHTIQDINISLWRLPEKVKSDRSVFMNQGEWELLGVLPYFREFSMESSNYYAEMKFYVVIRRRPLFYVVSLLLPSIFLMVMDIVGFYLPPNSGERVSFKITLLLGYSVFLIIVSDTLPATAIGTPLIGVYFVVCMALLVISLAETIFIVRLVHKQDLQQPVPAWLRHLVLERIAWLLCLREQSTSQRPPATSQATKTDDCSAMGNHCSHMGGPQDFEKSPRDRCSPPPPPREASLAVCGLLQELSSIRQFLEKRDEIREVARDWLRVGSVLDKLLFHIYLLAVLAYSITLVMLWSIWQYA
Excerpt: as §1

[11] = target: Vasopressin Receptor V1a (Homo sapiens, UniProt P37288); assay: Vasopressin Receptor V1a ANT; settings: antagonist; read-out: pIC50 Vasopressin Receptor V1a ANT (converted)
Excerpt: as §1

[12] = target: Serotonin Receptor 5HT1B (Homo sapiens, UniProt P28222); assay: Serotonin Receptor 5HT1B AG; settings: agonist; read-out: pEC50 Serotonin Receptor 5HT1B AG (converted)
Excerpt: as §1

[13] = target: Cyclooxygenase 2 (Homo sapiens, UniProt P35354); assay: Cyclooxygenase 2 ANT; format: biochemical; settings: antagonist; read-out: pIC50 Cyclooxygenase 2 ANT (converted)
Excerpt: as §1

[14] = target: Adrenergic Receptor a1B (Homo sapiens, UniProt P35368); assay: Adrenergic Receptor a1B ANT
Excerpt: as §1

[15] = target: T1, Serotonin Receptor 5HT3; assay: Serotonin Receptor 5HT3 ANT; settings: antagonist; read-out: pIC50 Serotonin Receptor 5HT3 ANT (converted)
Excerpt: as §1

[16] = target: T2, Muscarinic Receptor M2 (Homo sapiens, UniProt P08172); assay: Muscarinic Receptor M2 ANT; settings: antagonist; read-out: pIC50 Muscarinic Receptor M2 ANT (converted)
T2 sequence (P08172 1-466): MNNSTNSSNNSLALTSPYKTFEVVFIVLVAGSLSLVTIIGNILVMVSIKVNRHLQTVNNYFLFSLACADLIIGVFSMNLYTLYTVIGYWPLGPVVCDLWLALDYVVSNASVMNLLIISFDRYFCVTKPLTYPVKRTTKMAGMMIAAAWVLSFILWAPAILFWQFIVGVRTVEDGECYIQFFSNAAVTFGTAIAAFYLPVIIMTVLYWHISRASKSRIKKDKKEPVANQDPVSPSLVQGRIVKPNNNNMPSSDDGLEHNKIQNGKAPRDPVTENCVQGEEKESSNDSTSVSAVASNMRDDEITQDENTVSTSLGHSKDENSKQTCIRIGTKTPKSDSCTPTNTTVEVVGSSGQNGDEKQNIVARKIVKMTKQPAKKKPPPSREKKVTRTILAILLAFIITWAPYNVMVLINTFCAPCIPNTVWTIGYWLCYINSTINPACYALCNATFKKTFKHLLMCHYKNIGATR
Excerpt: as §1

[17] = tested on: Snu398 cells; assay: Lactate production assay, Snu398 (RapidFire-MS); settings: Homo sapiens, SNU-398, read-out: lactate production EC50
[18] = target: Dopamin Receptor D2 (Homo sapiens, UniProt P14416); assay: Dopamin Receptor D2 AG; settings: agonist; read-out: pEC50 Dopamin Receptor D2 AG (converted)
Excerpt: as §1

[19] = target: Adrenergic Receptor b2 (Homo sapiens, UniProt P07550); assay: Adrenergic Receptor b2 ANT; settings: antagonist; read-out: pIC50 Adrenergic Receptor b2 ANT (converted)
Excerpt: as §1

[20] = target: Opioid Receptor m (Homo sapiens, UniProt P35372); assay: Opioid Receptor m ANT; settings: antagonist; read-out: pIC50 Opioid Receptor m ANT (converted)
Excerpt: as §1

[21] = target: Phosphodiesterase 4B (Homo sapiens, UniProt Q07343); assay: Phosphodiesterase 4B ANT; format: biochemical; settings: antagonist; read-out: pIC50 Phosphodiesterase 4B ANT (converted)
Excerpt: as §1

Sequence of Vasopressin Receptor V1a (P37288 whole entry): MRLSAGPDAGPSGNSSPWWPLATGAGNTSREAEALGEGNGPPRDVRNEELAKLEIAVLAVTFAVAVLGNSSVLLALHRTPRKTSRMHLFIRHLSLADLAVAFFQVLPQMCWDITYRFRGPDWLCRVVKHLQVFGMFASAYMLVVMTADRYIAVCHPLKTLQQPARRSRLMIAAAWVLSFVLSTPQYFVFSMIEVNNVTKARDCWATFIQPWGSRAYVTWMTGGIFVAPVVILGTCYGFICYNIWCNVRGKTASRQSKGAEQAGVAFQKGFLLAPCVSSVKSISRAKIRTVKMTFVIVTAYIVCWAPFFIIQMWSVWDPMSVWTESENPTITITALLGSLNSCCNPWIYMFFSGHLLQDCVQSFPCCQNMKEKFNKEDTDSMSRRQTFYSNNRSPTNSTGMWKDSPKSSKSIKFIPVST
Sequence of Monoamine Oxidase B (P27338 whole entry): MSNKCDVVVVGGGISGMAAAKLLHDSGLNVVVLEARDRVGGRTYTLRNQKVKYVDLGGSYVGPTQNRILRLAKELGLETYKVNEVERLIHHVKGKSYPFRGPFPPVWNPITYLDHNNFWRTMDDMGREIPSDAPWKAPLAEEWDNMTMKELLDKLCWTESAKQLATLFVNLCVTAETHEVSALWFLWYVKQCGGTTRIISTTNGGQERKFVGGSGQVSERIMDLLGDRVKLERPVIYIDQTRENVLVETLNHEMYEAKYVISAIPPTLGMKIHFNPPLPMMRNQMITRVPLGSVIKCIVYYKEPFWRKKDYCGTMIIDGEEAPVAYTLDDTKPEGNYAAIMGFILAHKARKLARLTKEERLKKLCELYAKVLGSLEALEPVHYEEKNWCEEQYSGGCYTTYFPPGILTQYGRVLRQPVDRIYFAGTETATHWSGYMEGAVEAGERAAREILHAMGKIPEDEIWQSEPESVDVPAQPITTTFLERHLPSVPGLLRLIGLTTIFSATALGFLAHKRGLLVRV
Sequence of Cannabinoid receptor type 2 (P34972 whole entry): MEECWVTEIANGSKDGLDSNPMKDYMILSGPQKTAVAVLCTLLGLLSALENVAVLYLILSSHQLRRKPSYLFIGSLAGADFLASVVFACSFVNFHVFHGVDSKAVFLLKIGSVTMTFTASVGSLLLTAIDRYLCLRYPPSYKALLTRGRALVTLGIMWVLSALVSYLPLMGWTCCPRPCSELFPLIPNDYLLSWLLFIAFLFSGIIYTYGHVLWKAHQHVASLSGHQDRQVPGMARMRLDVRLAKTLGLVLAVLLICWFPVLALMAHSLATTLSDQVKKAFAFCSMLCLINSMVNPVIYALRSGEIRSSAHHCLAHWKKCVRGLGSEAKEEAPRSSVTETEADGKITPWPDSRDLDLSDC
Sequence of Serotonin Receptor 5HT1B (P28222 whole entry): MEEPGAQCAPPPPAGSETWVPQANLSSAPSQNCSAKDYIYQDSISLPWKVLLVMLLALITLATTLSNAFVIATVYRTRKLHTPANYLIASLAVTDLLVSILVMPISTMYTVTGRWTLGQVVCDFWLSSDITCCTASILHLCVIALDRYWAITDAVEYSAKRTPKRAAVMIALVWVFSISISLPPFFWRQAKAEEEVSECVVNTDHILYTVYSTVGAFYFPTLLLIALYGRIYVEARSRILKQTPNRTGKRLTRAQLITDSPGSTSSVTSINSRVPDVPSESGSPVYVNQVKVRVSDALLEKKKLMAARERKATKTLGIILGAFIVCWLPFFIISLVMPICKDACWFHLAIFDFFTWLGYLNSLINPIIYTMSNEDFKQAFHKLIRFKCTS
Sequence of Opioid Receptor k (P41145 whole entry): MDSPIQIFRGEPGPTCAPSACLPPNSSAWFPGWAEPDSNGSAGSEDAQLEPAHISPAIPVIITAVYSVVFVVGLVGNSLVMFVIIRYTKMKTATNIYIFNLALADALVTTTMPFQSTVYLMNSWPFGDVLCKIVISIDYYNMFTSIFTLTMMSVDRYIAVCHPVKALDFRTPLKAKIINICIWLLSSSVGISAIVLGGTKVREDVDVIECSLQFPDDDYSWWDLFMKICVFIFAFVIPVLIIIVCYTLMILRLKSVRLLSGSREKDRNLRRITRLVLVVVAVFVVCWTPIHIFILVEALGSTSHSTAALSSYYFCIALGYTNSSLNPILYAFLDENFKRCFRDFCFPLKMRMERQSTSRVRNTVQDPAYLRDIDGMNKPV
Sequence of Sodium Channel NaV 1.5 (Q14524 whole entry): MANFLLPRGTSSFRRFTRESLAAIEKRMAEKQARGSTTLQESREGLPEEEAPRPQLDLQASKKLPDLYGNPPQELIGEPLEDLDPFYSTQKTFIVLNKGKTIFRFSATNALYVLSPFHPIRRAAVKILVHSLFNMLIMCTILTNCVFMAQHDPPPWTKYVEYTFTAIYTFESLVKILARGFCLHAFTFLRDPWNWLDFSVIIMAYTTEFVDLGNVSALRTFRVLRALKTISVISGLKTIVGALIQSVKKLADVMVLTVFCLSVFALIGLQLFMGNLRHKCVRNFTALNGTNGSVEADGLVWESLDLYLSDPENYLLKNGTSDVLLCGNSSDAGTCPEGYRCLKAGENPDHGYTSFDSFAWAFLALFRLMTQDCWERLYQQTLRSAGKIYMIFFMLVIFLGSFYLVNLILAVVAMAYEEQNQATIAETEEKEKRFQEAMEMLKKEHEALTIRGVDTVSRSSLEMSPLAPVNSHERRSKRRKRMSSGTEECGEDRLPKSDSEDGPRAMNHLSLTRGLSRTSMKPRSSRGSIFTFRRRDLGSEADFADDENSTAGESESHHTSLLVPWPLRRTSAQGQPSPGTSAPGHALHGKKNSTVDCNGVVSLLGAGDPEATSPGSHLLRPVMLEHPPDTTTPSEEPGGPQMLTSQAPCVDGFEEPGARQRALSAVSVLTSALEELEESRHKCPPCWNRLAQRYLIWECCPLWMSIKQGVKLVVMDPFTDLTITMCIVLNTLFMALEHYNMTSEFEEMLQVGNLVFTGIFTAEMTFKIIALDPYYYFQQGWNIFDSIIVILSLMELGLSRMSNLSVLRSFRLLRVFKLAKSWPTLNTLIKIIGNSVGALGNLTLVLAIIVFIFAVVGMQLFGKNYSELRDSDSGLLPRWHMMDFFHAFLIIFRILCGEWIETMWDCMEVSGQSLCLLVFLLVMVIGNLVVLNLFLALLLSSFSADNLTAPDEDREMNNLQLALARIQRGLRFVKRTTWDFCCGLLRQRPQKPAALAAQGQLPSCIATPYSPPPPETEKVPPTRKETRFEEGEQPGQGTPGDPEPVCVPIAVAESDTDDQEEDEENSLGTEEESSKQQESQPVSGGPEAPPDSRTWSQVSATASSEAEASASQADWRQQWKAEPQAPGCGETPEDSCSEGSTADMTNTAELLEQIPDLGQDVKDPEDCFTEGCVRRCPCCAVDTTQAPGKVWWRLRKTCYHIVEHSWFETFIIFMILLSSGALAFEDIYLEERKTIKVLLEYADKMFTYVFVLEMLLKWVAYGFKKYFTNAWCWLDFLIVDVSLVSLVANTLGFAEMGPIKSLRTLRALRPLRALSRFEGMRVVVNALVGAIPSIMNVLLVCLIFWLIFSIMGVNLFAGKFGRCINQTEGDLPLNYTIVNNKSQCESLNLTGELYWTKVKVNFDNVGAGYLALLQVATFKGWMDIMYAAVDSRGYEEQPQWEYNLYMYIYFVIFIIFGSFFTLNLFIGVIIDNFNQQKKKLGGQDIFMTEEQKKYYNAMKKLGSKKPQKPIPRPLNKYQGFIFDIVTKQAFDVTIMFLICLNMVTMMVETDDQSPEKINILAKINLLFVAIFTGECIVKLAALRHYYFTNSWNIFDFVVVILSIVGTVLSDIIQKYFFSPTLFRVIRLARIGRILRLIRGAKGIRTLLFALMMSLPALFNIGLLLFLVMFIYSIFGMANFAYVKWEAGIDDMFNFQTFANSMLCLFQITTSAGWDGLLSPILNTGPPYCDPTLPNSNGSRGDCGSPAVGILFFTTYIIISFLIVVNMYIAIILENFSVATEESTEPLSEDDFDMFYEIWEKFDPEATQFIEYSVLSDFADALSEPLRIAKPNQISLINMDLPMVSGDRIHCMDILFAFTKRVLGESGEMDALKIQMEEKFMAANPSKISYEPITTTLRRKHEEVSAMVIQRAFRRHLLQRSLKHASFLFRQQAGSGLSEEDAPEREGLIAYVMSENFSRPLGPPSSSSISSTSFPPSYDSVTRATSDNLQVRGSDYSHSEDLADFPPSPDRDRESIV
Sequence of Dopamin Receptor D2 (P14416 whole entry): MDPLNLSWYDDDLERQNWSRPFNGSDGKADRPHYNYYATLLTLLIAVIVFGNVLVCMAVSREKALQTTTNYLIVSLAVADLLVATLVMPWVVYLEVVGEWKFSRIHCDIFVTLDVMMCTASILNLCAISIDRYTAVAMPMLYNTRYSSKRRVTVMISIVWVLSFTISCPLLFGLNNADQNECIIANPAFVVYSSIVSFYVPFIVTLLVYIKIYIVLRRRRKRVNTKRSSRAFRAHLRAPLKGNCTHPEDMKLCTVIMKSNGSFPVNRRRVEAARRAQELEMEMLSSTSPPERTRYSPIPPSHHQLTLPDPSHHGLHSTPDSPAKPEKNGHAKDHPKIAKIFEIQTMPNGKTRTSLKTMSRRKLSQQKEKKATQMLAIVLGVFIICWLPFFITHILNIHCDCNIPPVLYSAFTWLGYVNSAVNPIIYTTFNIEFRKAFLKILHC
Sequence of Opioid Receptor m (P35372 whole entry): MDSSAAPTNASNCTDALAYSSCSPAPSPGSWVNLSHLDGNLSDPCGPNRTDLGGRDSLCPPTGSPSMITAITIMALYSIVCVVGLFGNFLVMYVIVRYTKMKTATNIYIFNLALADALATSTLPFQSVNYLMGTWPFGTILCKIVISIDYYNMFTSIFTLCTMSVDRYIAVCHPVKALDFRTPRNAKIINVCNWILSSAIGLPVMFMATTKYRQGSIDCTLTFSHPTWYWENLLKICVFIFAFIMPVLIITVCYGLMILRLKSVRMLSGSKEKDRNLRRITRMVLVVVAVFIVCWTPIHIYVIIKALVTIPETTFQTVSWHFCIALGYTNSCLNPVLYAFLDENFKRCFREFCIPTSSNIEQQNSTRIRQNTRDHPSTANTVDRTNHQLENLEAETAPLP

Compound	EC50 [1] [µM]	IC50 [2] [µM]	IC50 [3] [µM]	IC50 [4] [µM]	IC50 [5] [µM]	EC50 [6] [µM]	IC50 [7] [µM]	IC50 [8] [µM]	IC50 [9] [µM]	EC50 [10] [µM]	IC50 [11] [µM]	EC50 [12] [µM]	IC50 [13] [µM]	IC50 [15] [µM]	IC50 [16] [µM]	EC50 [17] [µM]	EC50 [18] [µM]	IC50 [19] [µM]	IC50 [20] [µM]	IC50 [21] [µM]	also measured
COc1ncc(-c2ccc3c(Nc4cc(C(=O)O)cc(C5CCCC5)c4)c(S(=O)(=O)NC4CC4)cnc3c2)c(OC)n1 [Compound 2]	31.6	15.8	31.6	50.1	39.8	50.1	31.6	31.6	25.1	39.8	20	31.6	63.1	12.6	15.8	0.6 ± 0.2	100	31.6	31.6	0.501	IC50 ([14]; antagonist, read-out: pIC50 Adrenergic Receptor a1B ANT (converted)): 31.6 µM
COc1ncc(-c2ccc3c(Nc4cc(Oc5cc(F)cc(F)c5)cc(C(=O)O)c4)c(S(=O)(=O)NC4CC4)cnc3c2)c(OC)n1 [Compound 1]	31.6	6.31	7.94	31.6	100	50.1	31.6	31.6	25.1	50.1	50.1	31.6	100	50.1	15.8	0.4 ± 0.1	100	31.6	63.1	1.26	IC50 [14]: 12.6 µM
